ChEMBL document CHEMBL6121013, “Novel antimalarial 3-substituted quinolones isosteres with improved pharmacokinetic properties” (Eur J Med Chem, 2025)
In brackets after ≈: the same amount, converted by molar mass.

Assays:
[1] = Lipophilicity, logD of the compound at pH 7.4 by shake flask method; assay type: physicochemical; settings: buffer
[2] = Solubility of the compound at pH 7.4; assay type: physicochemical; settings: buffer
[3] = Metabolic stability in human liver microsomes assessed as intrinsic clearance incubated for 0.5 to 30 mins by LC-MS/MS analysis; assay type: ADME, Microsome; settings: time 0.5-30 min, read-out: CLH
Plasmodium falciparum = assay: Antimalarial activity against chloroquine-resistant Plasmodium falciparum W2 assessed as reduction in malarial growth incubated for 72 hrs by Spectrophotometric analysis; assay type: functional, organism-based; settings: W2, 72 h
[4] = Metabolic stability in rat hepatocytes assessed as intrinsic clearance measured at 10^6 cells incubated for 5 to 120 mins by LC-MS/MS analysis; assay type: ADME, cell-based, Hepatocyte; settings: time 5-120 min, read-out: CLH
[5] = Plasma protein binding in human assessed as free fraction incubated for 6 hrs by LC-MS/MS analysis; assay type: ADME, cell-free
[6] = Cmax in male CD1 mouse at 50 mg/kg, po by LC-MS analysis; assay type: ADME, organism-based; settings: in vivo
[7] = Oral bioavailability in male CD1 mouse at 50 mg/kg by LC-MS analysis; assay type: ADME, organism-based; settings: in vivo
[8] = AUC in male CD1 mouse at 50 mg/kg, po by LC-MS analysis; assay type: ADME, organism-based; settings: in vivo
[9] = Half life in male CD1 mouse at 2 mg/kg, iv by LC-MS analysis; assay type: ADME, organism-based; settings: in vivo
[10] = Clearance in male CD1 mouse at 2 mg/kg, iv by LC-MS analysis; assay type: ADME, organism-based; settings: in vivo
[11] = Clearance in mouse administered intravenously; assay type: ADME; settings: in vivo, route iv

| SMILES | logD [1] | solubility [2] [µM] | microsomal CLint [3] [µL/min/mg] | IC50 (Plasmodium falciparum) [nM] | hepatocyte CLint [4] [µL/min/1e6 cells] | fraction unbound at 6 h [5] | also measured |
| --- | --- | --- | --- | --- | --- | --- | --- |
| Cc1[nH]c2ccccc2c(=O)c1-c1ccc(Oc2ccc(OC(F)(F)F)cc2)cc1 | 4.9 | 3 (≈ 1.23 µg/mL) | < 3 | 92 | 6.17 | 0.0009 |  |
| Cc1[nH]c2c(c(=O)c1-c1ccc(Cl)cc1)CC(F)(F)CC2 | 2.7 | 20 (≈ 6.19 µg/mL) | < 3 | 235 | < 1 | 0.12 | Cmax [6]: 28900 ng/mL; bioavailability [7]: 23.4%; AUC [8]: 405 µg·h/mL; half-life [9]: 6.39 h; clearance [10]: 0.47 mL/min/kg |
| Cc1[nH]c2c(c(=O)c1-c1ccc(F)cc1)CCOC2 |  |  |  | 8410 |  |  |  |
| Cc1[nH]c2c(c(=O)c1-c1ccc(Oc3ccc(OC(F)(F)F)cc3)cc1)CCCCC2 |  |  |  | 1520 |  |  |  |
| Cc1[nH]c2c(c(=O)c1-c1ccc(Cl)cc1)CCCCC2 |  |  |  | 3800 |  |  |  |
| Cc1[nH]c2c(c(=O)c1-c1ccc(Oc3ccc(OC(F)(F)F)cc3)cc1)CCOC2 |  |  |  | 446 |  |  |  |
| Cc1[nH]c2c(c(=O)c1-c1ccc(F)cc1)CC(F)(F)CC2 | 1.7 | 68 (≈ 19.9 µg/mL) | < 3 | 597 | < 1 | 0.3 |  |
| Cc1[nH]c2c(c(=O)c1-c1ccc(Oc3ccc(OC(F)(F)F)cc3)cc1)COCC2 | 3.8 | 140 (≈ 58.4 µg/mL) | < 3 | 528 | 2.63 | 0.0065 |  |
| Cc1[nH]c2c(c(=O)c1-c1ccc(OC(F)(F)F)cc1)CCCC2 | 3.3 | 14 (≈ 4.53 µg/mL) | 25.6 | 354 | 1.14 | 0.15 |  |
| COc1cc2[nH]c(C)c(-c3ccc(Oc4ccc(OC(F)(F)F)cc4)cc3)c(=O)c2cc1Cl |  |  |  |  |  |  | clearance [11]: 0.7 mL/min/kg |
| Cc1[nH]c2c(c(=O)c1-c1ccc(F)cc1)CCCC2 |  |  |  | 4800 |  |  |  |
| Cc1[nH]c2c(c(=O)c1-c1ccc(Oc3ccc(OC(F)(F)F)cc3)cc1)CC(F)(F)CC2 | 3.9 | 2 (≈ 0.903 µg/mL) | < 3 | 285 | < 1 | 0.0029 |  |
| Cc1[nH]c2c(c(=O)c1-c1ccc(-c3ccc(OC(F)(F)F)cc3)nc1)CCCC2 |  |  |  | 1150 |  |  |  |
| Cc1[nH]c2c(c(=O)c1-c1ccc(-c3ccc(OC(F)(F)F)cc3)nc1)COCC2 |  |  |  | > 10000 |  |  |  |
| Cc1[nH]c2c(c(=O)c1-c1ccc(Cl)cc1)COCC2 |  |  |  | > 10000 |  |  |  |
| Cc1[nH]c2c(c(=O)c1-c1ccc(Cl)cc1)CCCC2 |  |  |  | 956 |  |  |  |
| Cc1[nH]c2c(c(=O)c1-c1ccc(F)cc1)COCC2 |  |  |  | > 10000 |  |  |  |
| Cc1[nH]c2c(c(=O)c1-c1ccc(Oc3ccc(OC(F)(F)F)cc3)cc1)CCCC2 | 4.5 | 0.2 (≈ 0.0831 µg/mL) | < 3 | 157 | 9.05 | 0.0013 |  |
| Cc1[nH]c2c(c(=O)c1-c1ccc(F)cc1)CCCCC2 |  |  |  | 4970 |  |  |  |
